Assay results reported in patent EP3839043A1, “SCREENING METHODS FOR COMPOUNDS MODULATING POLYAMINE TRANSPORT” (Katholieke Universiteit Leuven, priority 2019, dated 2021).

Test system: isolated mouse cortical neurons
Test: TUNEL staining of SPM-treated primary neurons
Type: cell-based
Conditions: CA-074 10 µM; SPM 10 µM, 24 h; Atp13a2 knockdown neurons
Source text: Neuron isolation - Primary cortical neurons were derived from E16 FVB/N mice embryos. Pregnant mice were sacrificed on gestation day 16 by cervical dislocation. E16 mice pup brains were collected and placed in a dish containing calcium- and magnesium-free Hanks' Balanced Salt Solution (HBSS, Life Technologies, 14180-046) on ice. Both cerebral hemispheres were separated from the cerebellum. Meninges were removed from the cerebral hemispheres and the brain cortices dissected. Brain cortices were collected, washed twice and digested with 0.05% trypsin (Life Technologies, 25300-054, 10 min at 37°C). Trypsin reaction was terminated by the addition of 7 ml HBSS and 1 ml of horse serum. Cells were separated by pipetting and filtration through a cell strainer (40 µm, Falcon, 352340). Cells were centrifuged at 1,000 rpm for 5 min (4°C), the supernatant discarded and the pellet suspended in 5 ml Dulbecco's Modified Eagle Medium (DMEM; Sigma-Aldrich, D6546) containing GlutaMAX (Life Technologies, 31966-021) containing 5% horse serum (Life Technologies, 26050-088) and 20 mM glucose (Sigma-Aldrich, 8270). Primary cortical neurons were plated in 12 well plates, on cover slips coated with poly-D-lysine (Sigma-Aldrich, P6407). […]
TUNEL staining - TUNEL staining was assessed according to the manufacturer's protocol for the Click-iT Plus TUNEL assay (ThermoFisher, C10617). […]

CCCNC(=O)[C@H]1O[C@@H]1C(=O)N[C@H](C(=O)N1CCC[C@H]1C(=O)O)[C@@H](C)CC [CA-074]
SPM-induced neuronal death (TUNEL positivity): rescues SPM-induced neuronal death
